According to US20200093864A1, “NOVEL THERAPEUTIC STEM CELL COMPOSITIONS WITH AN ACTIVE OXIDATIVE PHOSPHORYLATION SITE AND THEIR PREPARATION” (priority 2018, published 2020):

What was measured:
[1] = system: human pancreatic carcinoma cells; conditions: added in the culture medium, after 4 days, compared with ethanol vehicle controls; cited from earlier work
[2] = system: human adenocarcinoma cells; assay: Growth of cultured human adenocarcinoma cells (Example 7); assay type: cell-based; conditions: for growth of cultured human adenocarcinoma cells (in words): Table 2 summary; for cell growth (10^5): cell numbers on day 4, 10^5 cells passaged day 0; for cell growth (10^5) / cell growth (% of control): TR2Co and TR 30 mg/dL, hMSC 10^5 added; for cell growth (% of control): day 4
Experimental: Human adenocarcinoma cells were cultured in RPMI medium with added fetal bovine serum and antibiotics, as reported by McCully K S et al in Research Communications in Chemical Pathology and Pharmacology, 1992; 77: 125-128. Equal numbers (10^5) of adenocarcinoma cells were trypsinized and passaged on day 0, and the cells were refed with media containing test compounds on days 1 and 3. Cell numbers were determined by trypsinization on day 4. Thioretinaco (TR2Co) and thioretinamide (TR) were synthesized, as previously described (McCully U.S. Pat. No. 4,618,685; McCully U.S. Pat. No. 4,925,931) and dissolved in absolute ethanol. Propylene glycol (PG) was added to the ethanol solutions of the test compounds, the ethanol was evaporated under reduced pressure at 37° C., and the resulting solutions in propylene glycol were added to the culture media. Human mesenchymal stem cells (hMSC) were incubated with cell culture medium containing TR2Co, NAD^+ and H2PO4^− in an atmosphere containing 5% ozone (O3), to produce activated stem cells and 10^5 hMSC were added to the culture medium containing adenocarcinoma cells. Equal numbers (10^5) of hMSC without exposure to TR2Co, O3, NAD^+ and H2PO4^− served as controls.

[3] = system: human pancreatic cancer cells growing in athymic mice; conditions: direct injection into subcutaneous tumors, cited from earlier work; for tumor growth inhibition (in words): 6 weeks, vs propylene glycol vehicle controls
[4] = system: cultured normal fibroblasts; conditions: thioretinaco in culture medium; cited from earlier work
[5] = system: person with metastatic prostate cancer; assay: Example 1: intravenous activated stem cell therapy, patient case; assay type: in vivo, human; conditions: following luprolide therapy, over three months; 8.0 before
Experimental: Preparation of human mesenchymal stem cells containing an increased concentration of the active site of oxidative phosphorylation, TR2CoO3O2NAD^+H2PO4^−, is accomplished by incubation of stem cells in cell culture medium containing thioretinaco (TR2Co), 30 mg/dL, and […] (NAD^+H2PO4^−), 30 mg/dL, and exposed to an atmosphere containing ozone […], 1-10% by volume. Human mesenchymal stem cells are isolated by liposuction or by bone marrow aspiration, followed by collagenase digestion, filtration of cellular debris, centrifugation and adherence of the cellular pellet to the surface of the cell culture dish. Adherent mesenchymal stem cells are maintained in cell culture medium for 4-5 days at about 37 degrees centigrade at atmospheric pressure until 90% confluency is achieved, subsequently passaged by trypsinization four additional times, and washed in buffered saline for use. Aliquots of the mesenchymal stem cells are checked for cell viability, and absence of fungal, bacterial, endotoxin and mycoplasma contamination. Multiple doses of 10^8 cells are delivered in 100 ml of sterile saline intravenously to achieve a total dose of 2.5×10^10 cells over a period of two years. The final concentration of TR2CoO3O2NAD^+H2PO4^− within the activated stem cells is approximately 10-300 μg/g.
A person was evaluated for treatment of metastatic prostate cancer. […]

CC1=C(/C=C/C(C)=C/C=C/C(C)=C/C(=O)NC2CCSC2=O)C(C)(C)CCC1 (stereo not drawn) [TR, N-homocysteine thiolactonyl retinamide]
cellular growth (in words) [1]: inhibition of cellular growth | growth of cultured human adenocarcinoma cells (in words) [2]: significantly inhibit | cell growth (10^5) [2]: 1.4 ± 0.50 10^5 | cell growth (% of control) [2]: 19 % of control | tumor growth inhibition (in words) [3]: no growth inhibition

C/C1=C2/[N-][C@H]([C@H](CC(N)=O)[C@@]2(C)CCC(=O)NC[C@@H](C)OP(=O)([O-])O[C@H]2[C@@H](O)[C@@H](n3cnc4cc(C)c(C)cc43)O[C@@H]2CO)[C@]2(C)N=C(/C(C)=C3N=C(/C=C4N=C1[C@@H](CCC(N)=O)C\4(C)C)[C@@H](CCC(N)=O)[C@]\3(C)CC(N)=O)[C@@H](CCC(N)=O)[C@]2(C)CC(N)=O.[CH2-][C@H]1O[C@@H](n2cnc3c(N)ncnc32)[C@H](O)[C@@H]1O.[Co] [adenosyl cobalamin]
tumor growth inhibition (in words) [3]: no growth inhibition

N[C@H]1CCSC1=O.[O-][Cl+3]([O-])([O-])O [homocysteine thiolactone perchlorate]
tumor growth inhibition (in words) [3]: no growth inhibition

N-homocysteine thiolactonyl retinamido cobalamin [TR2Co]
cellular growth (in words) [1]: inhibition of cellular growth | growth of cultured human adenocarcinoma cells (in words) [2]: significantly inhibit | cell growth (10^5) [2]: 2.5 ± 0.82 10^5 | cell growth (% of control) [2]: 33 % of control | growth of cultured normal fibroblasts (in words) [4]: Only the highest concentrations of thioretinaco decrease growth | reduction of tumor weight ([3]; after 6 weeks of growth, compared with propylene glycol vehicle controls): 50%

homocysteine thiolactonyl cobalamin
tumor growth inhibition (in words) [3]: no growth inhibition

luprolide
PSA value [5]: 0.1 ng/mL
